# Test results reported in US10913983B2, “Sensitivity markers and uses for CDK7 inhibitors in breast cancers” (UNIVERSITY OF SOUTH CAROLINA, priority 2017, dated 2021).
# Assays:
# Format in all cases: cell-based
# [1] = test system: panel of breast cancer cell lines; assay: Cell proliferation MTT assay, cell line panel; conditions: 7 days
# Description: (§1) Cells were seeded in 12-well plates at densities ranging from 10000-30000 cells/well and after 24 hours cells were treated with 10, 40 and 100 nM THZ1 in triplicate. After 7 days the cells were imaged using Zeiss Axiovert 200 microscope using a 20× objective lens. Additionally, cells were plated in 96-well plates at a density of 2000 cells/well and after 24 hours treated with 0-10 μM THZ1. After 2 and 7 days the growth of the cells was measured by MTT assay.
# (§2) All results were presented as mean±standard deviation of 4-8 parallel assessments. Similar results were obtained from a minimum of two independent experiments. […] Densitometry was performed on duplicate immunoblots using ImageLab software (Biorad) and normalized to tubulin loading controls and then correlated with the THZ1 IC50 values of each cell line. Statistical analyses were performed using SPSS 18.0 (SPSS Inc). Bi-variant scatter graphs and Spearman rank analyses were performed to evaluate associations between protein levels, mRNA and response to inhibition. IC50 values were calculated for MTT assays using CompuSyn software.
# To investigate the effect of CDK7 inhibition in a time and dose dependent manner, an extended panel of 11 breast cancer cell lines were screened for response to THZ1 after 2 and 7 days of treatment.
# [2] = test system: MDA-MB-231; assay: Cell proliferation MTT assay; conditions: MDA-MB-231, 7 days, read-out: 7 day IC50
# Description: as §1, §2
# [3] = test system: ZR-75-1; assay: Cell proliferation MTT assay; conditions: ZR-75-1, 7 days, read-out: 7 day IC50
# Description: as §1, §2
# [4] = test system: MCF7; assay: Cell proliferation MTT assay; conditions: MCF7, 7 days, read-out: 7 day IC50
# Description: as §1, §2
# [5] = test system: SKBR3; assay: Cell proliferation MTT assay; conditions: SKBR3, 7 days, read-out: 7 day IC50
# Description: as §1, §2
# [6] = test system: T47D; assay: Cell proliferation MTT assay; conditions: 7 days, read-out: 7 day IC50
# Description: as §1, §2
# [7] = test system: JIMT-1; assay: Cell proliferation MTT assay; conditions: JIMT-1, 7 days, MTT; read-out: 7 day IC50
# Description: as §1, §2
# [8] = test system: MDA-MB-361; assay: Cell proliferation MTT assay; conditions: MDA-MB-361, 7 days, read-out: 7 day IC50
# Description: as §1, §2
smiles,measurement,setting,value
CC(C)c1cnn2c(NCc3ccccc3)cc(NCCCCCCN)nc12 [BS-181],growth inhibition,[1]; all tested breast cancer cell lines,inhibited the growth of all tested breast cancer cell lines
same,efficiency of growth inhibition compared with THZ1,[1]; cell line panel,much less efficient than THZ1
same,IC50,[2],39.5 µM
same,IC50,[3],19.6 µM
same,IC50,[4],32.1 µM
same,IC50,[5],8.9 µM
same,IC50,[6],8.5 µM
same,IC50,[7],11.1 µM
same,IC50,[8],4.9 µM
